According to patent publication US20030138374A1, “Image diagnosis probe based on substituted azobenzene or analogue thereof for disease attributable to amyloid accumulation and composition for image diagnosis containing the same” (priority 2000, published 2003):
Counter-ions that a name gives are not always drawn.

molecular target: T1, amyloid β protein (Homo sapiens, UniProt P05067); assay: β structure recognition of amyloid β protein (thioflavin T fluorescence); type: binding; settings: comment on Table I
T1 construct: the amyloid β protein (purchased from Peptide Laboratory) was dissolved in a potassium phosphate buffer (pH7.4); purchased Peptide Laboratory
Protocol: (1) Method of Quantifying the Amyloid β Protein Having β Sheet Structure—method of Measuring of Recognition of β Structure in a Test Compound
Then, each 100 microliters of thioflavin T (which emits fluorescence depending on an extent of β structure of the amyloid β protein) dissolved in a glycine-NaOH buffer (pH 8.5) was added (final concentration 3 μM), and the fluorescence was immediately measured with a fluorescent microplate reader (manufactured by Molecular Device, Model fmax) at an excitation wavelength of 442 nm and a measurement wavelength of 485 nm. When the fluorescence of thioflavin alone was regarded as A, the fluorescence under the coexistence of the amyloid β protein and thioflavin T was regarded as B, and the fluorescence under the coexistence of the amyloid β protein, thioflavin T and a test compound was regarded as C, the recognition of β structure for the test compound was calculated by the following formula (unless otherwise indicated, the concentration of a test compound was 1 μM):
β structure recognition for test compound (%)={(B−C)/(B−A)}×100

T1 sequence (P05067 672-711 limits assumed): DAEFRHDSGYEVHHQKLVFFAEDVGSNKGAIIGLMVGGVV

Row | Compound | β structure recognition (in words)
1 | CN(C)c1ccc(N=Nc2ccccn2)cc1 [SA-215, 4-(2-pyridylazo)-N,N-dimethylaniline] | relatively high recognition of β structure
2 | CC[n+]1c(/C=C/c2ccc(N(C)C)cc2)ccc2ccccc21 [SA-169, Quinaldine Red] | highly recognize β structure
3 | CN(C)c1ccc(/C=C/c2ccc3ccccc3[n+]2C)cc1 [SA-245, 2-(4-(dimethylamino)stylyl)-1-methyl quinolinium iodide] | highly recognize β structure
4 | CCN(CC)c1ccc(/C=C/c2cccc(/C=C/c3ccc(N(CC)CC)cc3)[n+]2C)cc1 [BF-064] | highly recognize β structure

The remaining lines, values ahead:

Row | β structure recognition (in words) | Compound
5 | highly recognize β structure | CCN(CC)c1ccc(N=Nc2ccc(N(C)C)cc2)c(NC(N)=O)c1 [SA-420, 4-(diethylamino)-4′-(dimethylamino)-2-(ureido)azobenzene]
6 | highly recognize β structure | Nc1ccc(SSc2ccc(N)cc2)cc1 [SA-260, 4-aminophenyldisulfide]

same assay, conditions: test compound 1 μM; thioflavin T 3 μM; average of duplicated experiments

Row | β Structure recognition (%) | Compound
7 | 84.4 | CCN(CC)c1ccc(/N=N/c2ccc(Br)cn2)c(O)c1 [BF-020]
8 | 19.7 | CCOc1ccc(/N=C/c2ccc(N(C)C)cc2)cc1.Cl [BF-034]
9 | 84.5 | O.O.O.O.O.O=C([O-])c1cc(N=Nc2ccc(-c3ccc(N=Nc4ccc(O)c(C(=O)[O-])c4)cc3)cc2)ccc1O.[Na+].[Na+] [Chrysamine G 2Na.5H2O, reference compound]
10 | 70.8 | CCN(CC)c1ccc(/N=C/c2ccc(N(CC)CC)cc2O)cc1 [BF-021]
11 | 5.6 | CN(C)c1ccc(/C=N/c2ccc(F)cc2)cc1.Cl [BF-035]

Row | Compound | β Structure recognition (%)
12 | Nc1ccc(/N=N/c2ccccc2)cc1 [SA-148, 4-phenyl azoaniline] | 28.0
13 | CN(C)c1ccc(C=Cc2cccc[n+]2C)cc1.[I-] [SA-213, 2-(4-(dimethylamino)stylyl)-1-methyl pyridinium iodide] | 50.7
14 | O=C([O-])c1cc(/C=C/c2ccc(/C=C/c3ccc(O)c(C(=O)[O-])c3)cc2)ccc1O.[Na+].[Na+] [Compound X34.2Na, reference compound] | 74.0
15 | CN(C)c1ccc(C=Cc2cccc[n+]2C)cc1.[I-] [SA-247, 2-(4-(dimethylamino)stylyl)-1-metyl pyridinium iodide] | 19.5

same assay, conditions: test compound 1 μM; thioflavin T 3 μM; average of duplicated experiments; read-out: β Structure recognition (%)

Row | Compound | β structure recognition (%) at 1 µM [%]
16 | CN(C)c1ccc(/C=C/c2ccc3ccccc3n2)cc1 [SA-770, 2-(4-(dimethylamino)stylyl) quinoline] | 25.4
17 | CCc1ccc(/N=C/c2ccc(N(C)C)cc2)cc1 [SA-408, N-(4-(dimethylamino)benzylidene)-4-ethylaniline] | 7.9
18 | CN(C)c1ccc(/N=C/c2ccccc2)cc1 [SA-758, N-benzylidene-N′,N′-dimethylbenzene-1,4-diamine] | 46.5
19 | CCOc1ccc(/N=C/c2ccc(N(C)C)cc2)cc1 [SA-399, N-(4-(dimethylamino)benzylidene)-p-phenetidine] | 23.1
20 | CC[n+]1ccccc1/C=C/c1ccc(N(C)C)cc1 [SA-212, 2-(4-(dimethylamino)stylyl)-1-ethyl pyridinium iodide] | 46
21 | CN(C)c1ccc(/N=C2/C=CC(=O)c3ccccc32)cc1 [BF-022] | 27.8
22 | CC[n+]1c(/C=C/c2ccc(N(C)C)cc2)ccc2ccccc21 [SA-169, Quinaldine Red] | 91.9
23 | Nc1c(SSc2ccc3ccccc3c2N)ccc2ccccc12 [SA-366, 2,2′-dithiobis(1-naphthylamine)] | 43.3
24 | CN(C)c1ccc(/C=N/c2cc3c(ccc4ccccc43)cn2)cc1 [SA-672, benzo(F) isoquinoline-2-yl-(4-dimethylaminobenzylidene)-amine] | 39.3
25 | CN(C)c1ccc(/C=C/c2ccc3ccccc3[n+]2C)cc1 [SA-245, 2-(4-(dimethylamino)stylyl)-1-methyl quinolinium iodide] | 86.9
26 | CN(C)c1ccc(/C=N/c2ccc(O)cc2)cc1 [BF-033] | 7.6
27 | CCN(CC)c1ccc(/C=C/c2cc[n+](C)cc2)cc1 [SA-445] | 71.2
28 | CCN(CC)c1ccc(/C=C/c2cccc(/C=C/c3ccc(N(CC)CC)cc3)[n+]2C)cc1 [BF-064] | 78.5
29 | CN(C)c1ccc(/C=N/c2ccc(F)cc2)cc1 [SA-407, N-(4-(dimethylamino)benzylidene)-4-fluoroaniline] | 6.8
30 | CCN(CC)c1ccc(/C=N/c2ccccc2)cc1 [SA-757, N-(4-(diethylamino)benzylidene) aniline] | 33.9
31 | CN(C)c1ccc(/C=C/c2ccccn2)cc1 [SA-271] | 53
32 | CN(C)c1ccc(/N=N/c2ccc(N)cc2)cc1 [SA-512, N,N-dimethyl-4,4′-azodianiline] | 68.2
33 | CN(C)c1ccc(SSc2ccc(N(C)C)cc2)cc1 [Compound N-200] | 21.6
34 | O=C(O)c1cc(/C=C/c2ccc(/C=C/c3ccc(O)c(C(=O)O)c3)cc2)ccc1O [Compound X34, 1,4-bis[2-(3-carboxy-4-hydroxyphenyl)eten-yl]-benzene, reference compound] | 73.9
35 | Nc1ccc(/N=N/c2ccccc2)cc1 [SA-138, 4-phenyl azoaniline HCl salt] | 35.9

Now from value to compound:

Row | β structure recognition (%) at 1 µM [%] | Compound
36 | 62.7 | CN(C)c1ccc(/N=N/c2ccc(S(=O)(=O)Cl)cc2)cc1 [SA-188, 4-(dimethylamino) azobenzene-4′-sulfonylchloride]
37 | 62.2 | CN(C)c1ccc(/N=N/c2ccc(S(=O)(=O)O)cc2)cc1 [SA-125, Methyl Orange]
38 | 65.4 | CCN(CC)c1ccc(/N=N/c2ccccc2)cc1 [SA-134, 4-(diethylamino) azobenzene]
39 | 52.4 | CN(C)c1ccc(/N=N/c2ccc(NC(=O)CI)cc2)cc1 [SA-446, N-(4-dimethylamino) azobenzene-4′-iodoacetamide]
40 | 36 | Nc1ccc(/C=C/c2ccc(N)cc2)cc1 [SA-324, 4,4′-diaminostylbene (2HCl salt)]
41 | 69.1 | CN(C)c1ccc(N=Nc2ccccn2)cc1 [SA-215, 4-(2-pyridylazo)-N,N-dimethylaniline]
42 | 38.4 | COc1cc(N=Nc2ccc(N)cc2)c(C)cc1N [SA-419, 4,4′diamino-5-methoxy-2-methyl azobenze]
43 | 30.7 | CCN(CC)c1ccc(/N=N/c2ccc(S(=O)(=O)O)cc2)cc1 [SA-163, Ethyl Orange Na salt]
44 | 35.7 | CN(C)c1ccc(N=Nc2ccc(N)cc2Cl)cc1 [SA-376, Disperse Black 7]
45 | 53.5 | CN(C)c1ccc(/N=N/c2ccc(C(=O)O)cc2)cc1 [SA-606]
46 | 71.6 | CCN(CC)c1ccc(N=Nc2ccc(N(C)C)cc2)c(NC(N)=O)c1 [SA-420, 4-(diethylamino)-4′-(dimethylamino)-2-(ureido)azobenzene]
47 | 73 | Nc1ccc(/N=N/c2cccc3ccccc23)c(N)c1 [SA-201, Fat Brown RR]
48 | 83.1 | Nc1ccc(SSc2ccc(N)cc2)cc1 [SA-260, 4-aminophenyldisulfide]
49 | 58 | Nc1ccc(/N=N/c2ccc([N+](=O)[O-])cc2)cc1 [SA-180, Disprese Orange 3]
50 | 42.8 | Cc1cc(N(C)C)ccc1/N=N/c1ccccc1 [SA-135, 4-dimethylamino-2-methyl-azobenzene]
51 | 85 | CCN(CC)c1ccc(/N=N/c2ccc(N(C)C)cc2)c(NC(N)=O)c1 [BF-055]

tested on: not listed separately; assay: Distribution coefficient between water/1-octanol; type: physicochemical; settings: 1-octanol / phosphate buffer (pH 7.3) or ultra-pure water
Protocol: As an oily phase, 1-octanol was used and, as an aqueous phase, a phosphate buffer (pH 7.3) or ultra-pure water was used. A suitable amount of a test compound was dissolved in an oily phase or an aqueous phase, and both phases were placed in the same test tube, and shaken vigorously at room temperature for 30 minutes. After allowing to stand at room temperature over 1 hour, centrifugation at 2000 rpm for 10 minutes was carried out, followed by further standing at room temperature for 1 hour. The aqueous phase and the oily phase were sampled, respectively, and transferred to a 96-well microplate. By using a microplate reader (manufactured by Molecular Device, Model Spectramax 250), the absorbance was measured at a maximum absorbing wavelength for each test compound, and the concentration of the test compound was calculated from a calibration curve previously obtained. A distribution coefficient was calculated by the following formula. Distribution coefficient for test compound =(concentration of test compound in oily phase)/(concentration of test compound in aqueous phase) As the distribution coefficient becomes larger, it can be said that the blood-brain barrier permeability for the test compound is higher.

Row | Compound | Distribution coefficient
52 | CC[n+]1c(/C=C/c2ccc(N(C)C)cc2)ccc2ccccc21 [SA-169, Quinaldine Red] | 18
53 | CN(C)c1ccc(/C=C/c2ccc3ccccc3[n+]2C)cc1 [SA-245, 2-(4-(dimethylamino)stylyl)-1-methyl quinolinium iodide] | 10
54 | O.O.O.O.O.O=C([O-])c1cc(N=Nc2ccc(-c3ccc(N=Nc4ccc(O)c(C(=O)[O-])c4)cc3)cc2)ccc1O.[Na+].[Na+] [Chrysamine G 2Na.5H2O, reference compound] | 2.7
55 | CCN(CC)c1ccc(/C=C/c2cccc(/C=C/c3ccc(N(CC)CC)cc3)[n+]2C)cc1 [BF-064] | 87
56 | O=C([O-])c1cc(/C=C/c2ccc(/C=C/c3ccc(O)c(C(=O)[O-])c3)cc2)ccc1O.[Na+].[Na+] [Compound X34.2Na, reference compound] | 2.7
57 | CCN(CC)c1ccc(/N=C/c2ccc(N(CC)CC)cc2O)cc1 [BF-021] | 30
58 | O=C(O)c1cc(/C=C/c2ccc(/C=C/c3ccc(O)c(C(=O)O)c3)cc2)ccc1O [Compound X34, 1,4-bis[2-(3-carboxy-4-hydroxyphenyl)eten-yl]-benzene, reference compound] | 3.4

Further lines, results first:

Row | Distribution coefficient | Compound
59 | 1 | CN(C)c1ccc(/N=N/c2ccc(S(=O)(=O)O)cc2)cc1 [SA-125, Methyl Orange]
60 | >100 | CN(C)c1ccc(N=Nc2ccccn2)cc1 [SA-215, 4-(2-pyridylazo)-N,N-dimethylaniline]

same assay, conditions: comment on Table I

Row | Distribution coefficient (in words) | Compound
61 | highest distribution coefficient | CN(C)c1ccc(N=Nc2ccccn2)cc1 [SA-215, 4-(2-pyridylazo)-N,N-dimethylaniline]
62 | high distribution coefficients | CCN(CC)c1ccc(/C=C/c2cccc(/C=C/c3ccc(N(CC)CC)cc3)[n+]2C)cc1 [BF-064]
63 | high distribution coefficients | CCN(CC)c1ccc(/N=C/c2ccc(N(CC)CC)cc2O)cc1 [BF-021]
